# Results as given in patent US20080306166A1, “Compositions and Methods For Treatment of Disorders of Protein Aggregation” (priority 2004, published 2008).
# “Also recorded” adds a separate entry of the source. Marks after values point to notes of the source that are not given here.
# How the values were obtained:
# [1] = tested on: TgCRND8 mice; assay: Morris Water Maze spatial reference memory test in TgCRND8 mice; format: in vivo, mouse
# Procedure: Mice. […] This initial dosage was chosen based upon the dosage of myo-cyclohexanehexyl (6-18 grams/day/adult or 86-257 mg/Kg/day) that is typically administered to human patients for various psychiatric disorders. […] A cohort of animals (n=10 mice per treatment arm) entered the study at five months of age, and outcomes were then analyzed after one month of treatment. The body weight, coat characteristics and in cage behaviour were monitored. Mannitol was used as a negative control for potential alterations in caloric intake. All experiments were performed according to the Canadian Council on Animal Care guidelines. Behavioural tests: Morris Water Maze testing was performed as previously described. After non-spatial pre-training, mice underwent place discrimination training for 5 days with 4-trials per day, followed by a cued visible platform to rule out general motivational, learning deficits and motor problems, and a probe trial to evaluate memory. […] Open field test for motor activity was preformed as described previously. Duration of walking, pausing and grooming were analyzed as indices of spontaneous locomotor activity. Sensorimotor function was examined with an Economex™ accelerating rotarod (Columbus Instruments, Columbus, Ohio), as described elsewhere. The rod was set to accelerate at a rate of 0.2 r.p.m./s, from an initial, constant speed of 5 r.p.m. Latency to fall was recorded in four daily trials, conducted at 30 min intervals. All mice were trained for seven days before testing. The test day performance score for each animal was obtained by summing its latency to fall over the four trials. Cerebral amyloid burden. Brains were removed and one hemisphere was fixed in 4% paraformaldehyde and embedded in paraffin wax in the mid sagittal plane. To generate sets of systematic uniform random sections, 5 μm serial sections were collected across the entire hemisphere. Sets of sections at 50 μm intervals were used for analyses (10-14 sections/set). Plaques were identified after antigen retrieval with formic acid, and incubation with primary anti-AD antibody (Dako M-0872), followed by secondary antibody (Dako StreptABCcomplex/horseradish kit). End products were visualized with DAB and were counter-stained with luxol fast blue. Amyloid plaque burden was assessed with Leco IA-3001 image analysis software interfaced with Leica microscope and Hitachi KP-M1U CCD video camera. Openlab imaging software (Improvision, Lexington, Mass.) was then used to convert micrographs to binary images for plaque number and plaque area determinations. Vascular amyloid burden was defined as amyloid originating from or surrounding blood vessels and was analysed similarly. Plasma and Cerebral Aβ Content. Hemi-brain samples were homogenized in a buffered sucrose solution, followed by either 0.4% diethylamine/100 mM NaCl for soluble Aβ levels or cold formic acid for the isolation of total Aβ. After neutralization, the samples were diluted and analyzed for Aβ40 and Aβ42 using commercially available kits (BIOSOURCE International). Each hemisphere was analyzed intriplicate and the mean values ±SEM reported. Western blot analyses were performed on all fractions using urea gels for Aβ species analyses. Aβ was detected using 6E10 (BIOSOURCE International) and Enhanced Chemiluminenscence (Amersham). Gliosis Quantitation. Five randomly selected, evenly spaced, sagittal sections were collected from paraformaldehyde-fixed and frozen hemispheres of treated and control mice. […]
# [2] = tested on: TgCRND8 mice; assay: Cerebral amyloid plaque burden (anti-Aβ immunostaining, image analysis); format: in vivo, mouse; conditions: TgCRND8 mice
# Procedure: Mice. […] This initial dosage was chosen based upon the dosage of myo-cyclohexanehexyl (6-18 grams/day/adult or 86-257 mg/Kg/day) that is typically administered to human patients for various psychiatric disorders. […] A cohort of animals (n=10 mice per treatment arm) entered the study at five months of age, and outcomes were then analyzed after one month of treatment. The body weight, coat characteristics and in cage behaviour were monitored. Mannitol was used as a negative control for potential alterations in caloric intake. All experiments were performed according to the Canadian Council on Animal Care guidelines. Behavioural tests: Morris Water Maze testing was performed as previously described. After non-spatial pre-training, mice underwent place discrimination training for 5 days with 4-trials per day, followed by a cued visible platform to rule out general motivational, learning deficits and motor problems, and a probe trial to evaluate memory. […] Open field test for motor activity was preformed as described previously. Duration of walking, pausing and grooming were analyzed as indices of spontaneous locomotor activity. Sensorimotor function was examined with an Economex™ accelerating rotarod (Columbus Instruments, Columbus, Ohio), as described elsewhere. The rod was set to accelerate at a rate of 0.2 r.p.m./s, from an initial, constant speed of 5 r.p.m. Latency to fall was recorded in four daily trials, conducted at 30 min intervals. All mice were trained for seven days before testing. The test day performance score for each animal was obtained by summing its latency to fall over the four trials. Cerebral amyloid burden. Brains were removed and one hemisphere was fixed in 4% paraformaldehyde and embedded in paraffin wax in the mid sagittal plane. To generate sets of systematic uniform random sections, 5 μm serial sections were collected across the entire hemisphere. Sets of sections at 50 μm intervals were used for analyses (10-14 sections/set). Plaques were identified after antigen retrieval with formic acid, and incubation with primary anti-AD antibody (Dako M-0872), followed by secondary antibody (Dako StreptABCcomplex/horseradish kit). End products were visualized with DAB and were counter-stained with luxol fast blue. Amyloid plaque burden was assessed with Leco IA-3001 image analysis software interfaced with Leica microscope and Hitachi KP-M1U CCD video camera. Openlab imaging software (Improvision, Lexington, Mass.) was then used to convert micrographs to binary images for plaque number and plaque area determinations. Vascular amyloid burden was defined as amyloid originating from or surrounding blood vessels and was analysed similarly. Plasma and Cerebral Aβ Content. Hemi-brain samples were homogenized in a buffered sucrose solution, followed by either 0.4% diethylamine/100 mM NaCl for soluble Aβ levels or cold formic acid for the isolation of total Aβ. After neutralization, the samples were diluted and analyzed for Aβ40 and Aβ42 using commercially available kits (BIOSOURCE International). Each hemisphere was analyzed intriplicate and the mean values ±SEM reported. Western blot analyses were performed on all fractions using urea gels for Aβ species analyses. Aβ was detected using 6E10 (BIOSOURCE International) and Enhanced Chemiluminenscence (Amersham). Gliosis Quantitation. Five randomly selected, evenly spaced, sagittal sections were collected from paraformaldehyde-fixed and frozen hemispheres of treated and control mice. Sections were immunolabelled for astrocytes with anti-rat GFAP IgG2a, (Dako; diluted 1:50) and for microglia with anti-rat CD68 IgG2b (Dako; 1:50).
# [3] = target: T1, Aβ42 (Homo sapiens, UniProt P05067); assay: Plasma Aβ42 levels; format: in vivo, mouse; conditions: TgCRND8 mice, 28 days of therapy at five months of age
# T1 construct: analyzed for Aβ40 and Aβ42 using commercially available kits; from tissue; host or cells: TgCRND8 transgenic mice: hemi-brain (A3) and plasma (A5)
# Procedure: (§1) Mice. […] This initial dosage was chosen based upon the dosage of myo-cyclohexanehexyl (6-18 grams/day/adult or 86-257 mg/Kg/day) that is typically administered to human patients for various psychiatric disorders. […] A cohort of animals (n=10 mice per treatment arm) entered the study at five months of age, and outcomes were then analyzed after one month of treatment. The body weight, coat characteristics and in cage behaviour were monitored. Mannitol was used as a negative control for potential alterations in caloric intake. All experiments were performed according to the Canadian Council on Animal Care guidelines. Behavioural tests: Morris Water Maze testing was performed as previously described. […] Duration of walking, pausing and grooming were analyzed as indices of spontaneous locomotor activity. […] Latency to fall was recorded in four daily trials, conducted at 30 min intervals. […] Amyloid plaque burden was assessed with Leco IA-3001 image analysis software interfaced with Leica microscope and Hitachi KP-M1U CCD video camera. […] Vascular amyloid burden was defined as amyloid originating from or surrounding blood vessels and was analysed similarly. […] After neutralization, the samples were diluted and analyzed for Aβ40 and Aβ42 using commercially available kits (BIOSOURCE International). Each hemisphere was analyzed intriplicate and the mean values ±SEM reported. […] Gliosis Quantitation. […]
# [4] = tested on: TgCRND8 mice; conditions: mouse, in vivo
# Procedure: as §1
# [5] = tested on: Aβ oligomers; assay: IP/Western blot of Aβ oligomers in 7PA2 conditioned medium; format: cell-based, human
# Procedure: (§2) Preparation of conditioned media: CHO— or 7PA2 cells were grown to ˜90% confluency. The cells were washed 1× in serum-free DMEM, then incubated overnight (˜15 hrs) in 4 ml/10 cm dish in serum-free DMEM, pen/strep, 1-glutamine with/without AZD-103. The following day, the conditioned media (CM) was collected, spun at 1000×g and treated with complete protease inhibitors (in mg/ml 1 leupeptin, 1 pepstatin, 0.1 aprotinin, 40 EDTA, and 2 mM 1/10 phenantroline) for biochemistry experiments or cell culture compatible protease inhibitors (Sigma P1860 1:1000) for electrophysiology experiments. The CM was stored at −80° C. until sufficient volumes were collected to complete a “batch”—typically ˜300 ml. […] The resulting concentrate was pooled, aliquoted in 1 ml fractions, and stored at −80° C. […] Therefore, for any given set of experiments (i.e. dose response curve, time curve, etc), a single batch is prepared and compared to 7PA2 alone within that batch.
# IP/Western blots: 8 ml of 7PA2 CM were precleared with 40 μl of protein A agarose for 30 min. The beads were spun down, and […] of the polyclonal anti-Aβ antibody R1282 was added to the supernatant with an additional 40 μl of protein A agarose. These samples were nutated at 4° C. overnight. The beads were washed with a series of buffers 0.5 STEN (sodium chloride, tris, EDTA, NP-40), SDS STEN, STEN. 2× tricine sample buffer was added to the washed beads, which were then boiled, centrifuged, and the resulting supernatant loaded onto 10-20% tricine gels. The proteins were then transferred to nitrocellulose, and probed with the anti-Aβ antibody 6E10.
# [6] = tested on: rats; assay: Alternating Lever Cyclic Ratio (ALCR) test after ICV Aβ oligomers; format: in vivo, rat
# Procedure: The Aβ oligomers are naturally produced by cells transfected with genes that over-produce the amyloid precursor protein (APP). […] In addition, oligomeric Aβ is extracted from brain homogenate taken from transgenic mice (Tg2576) transfected with the Swedish APP mutation. […] These purified oligomeric forms of Aβ, at physiological concentrations relevant to those found in AD, are injected into the rat's lateral ventricle through an indwelling cannula while the animals are awake and moving. Two hours after injection the rats are tested under sensitive cognitive assay. The assay, the Alternating Lever Cyclic Ratio (ALCR) test, has proven to be much more sensitive than previously published methods for measuring drug effects on cognitive function. In this task, rats must learn a complex sequence of lever-pressing requirements in order to earn food reinforcement in a two-lever experimental chamber. Subjects must alternate between two levers by switching to the other lever after pressing the first lever enough to get food reward. The exact number of presses required for each food reward changes, first increasing from 2 responses per food pellet up to 56 presses per food pellet, then decreasing back to 2 responses per pellet. Intermediate values are based on the quadratic function, x^2−x. One cycle is an entire ascending and descending sequence of these lever press requirements (e.g., 2, 6, 12, 20, 30, 42, 56, 56, 42, 30, 20, 12, 6, and 2 presses per food reward). Six such full cycles are presented during each daily session. […] Oligomeric Aβ: […] These cells secrete oligomeric Aβ into the culture medium (CM) at physiological levels. Aβ oligomers was also derived from Tg2576 mouse brain and purified by size exclusion chromatography. Samples of oligomeric Aβ were characterized by Western Blot Analysis. Appropriate control compounds were produced and tested for each active Aβ oligomeric configuration. Rats: Forty (40) rats were trained under ALCR for approximately 3 months until their error rates are stable. Training sessions were conducted 5 days each week. Surgery: After training, all rats received a single 28 ga. cannula that was permanently affixed to the skull, and aimed at the lateral ventricle (divided equally between left and right). Rats were allowed 5 days to recover from surgery. Administration: In vivo administration of AZD103 to rats was performed by dissolving AZD103 into drinking water. Different concentrations were prepared, and the average daily water intake used to target specific average daily dose levels. These dose levels were therefore approximate. Testing: AZD 103 was tested against Aβ oligomers known to disrupt cognitive function. […] AZD 103 was incubated with the injectate medium containing Aβ oligomers prior to assessing it's affect on ALCR. […] Treatments were assessed in the following order: • 1. […] ICV AZD 103 alone • 3. […] Error Rate Analysis: All error rates under AZD 103 were compared to baseline error rates consisting of at least 3-4 non-treatment days prior to injections. This is a repeated measure within subject design that produces maximum power to detect changes in the error rates. Histology: Upon completion of the study, 20 rat brains were banked. The other 20 brains were evaluated histologically for inflammation, gliosis and cannula placement. […] Serial hematoxylin and eosin stained sections were used to evaluate for cannula placement. These same hemibrains were evaluated for inflammation (neutrophils/lymphocytes/macrophages), gliosis (microglial and astrocytic) and neuron loss using standard hematoxylin and eosin staining as well as specific markers for gliosis as needed.
# [7] = tested on: 7PA2 cells; assay: Toxicity observations in 7PA2 cells and LTP controls; format: cell-based, Chinese Hamster; conditions: APPs expression, LTP in CHO-/AZD-103 conditions
# Procedure: as §2
# [8] = tested on: TgCRND8 mice; assay: Two-month treatment of TgCRND8 mice, cognition and pathology; format: in vivo, mouse; conditions: TgCRND8 mice treated for 2 months, ending at 7 months of age
# Procedure: Scyllo-inositol was also administered to […]8 mice for 2 months, ending at 7 months of age.
# [9] = six month old TgCRND8 mice, 28 days treatment from 5 months
# [10] = 28 day course at 5 months of age, vs untreated
# [11] = oral, 28 days from 5 months of age, 6 months of age, listed as Scyllo-cyclohexanehexol
# T1 sequence (P05067 672-713): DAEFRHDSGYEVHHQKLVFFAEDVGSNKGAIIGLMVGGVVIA
structure (smiles),measurement,setting,value
"OC1C(O)C(O)C(O)C(O)C1O (stereo not drawn) [scyllo-cyclohexanehexyl, 1,3,5/2,4,6-(scyllo-) cyclohexanehexyl]","probe trial, % time in target quadrant",[1]; separate cohort of treated TgCRND8 mice vs non-Tg littermates,not statistically different from non-Tg littermates
same,spatial learning performance compared to non-Tg littermates,[1]; [9],indistinguishable from that of their non-Tg littermates
same,spatial learning performance compared to untreated TgCRND8 littermates,[1]; [9],significantly better behavioural performance compared to untreated TgCRND8 mice; also recorded: significantly better than untreated TgCRND8 littermates
same,"percent area of the brain covered by plaques, reduction",[2]; [10],14±0.5%
same,plaque number reduction,[2]; [10],13±0.3%
same,plaque size reduction,[2]; [10],16±0.4%
same,plaque burden in the hippocampus,"[2]; one month of treatment, anti-Aβ antibody staining",lower plaque burden
same,Mean Plaque Size,[2]; [11],336 ± 6* μm^2
same,Total Plaque Area,[2]; [11],420027 ± 14986* μm^2
same,Total Plaque Count,[2]; [11],1260 ± 27
same,Plasma Aβ42 levels,[3],990 ± 73 pg/mL
same,grooming or activity in the open field test,[4],no effect on grooming or activity
same,"sensorimotor function, Rotarod",[4],no difference
same,Aβ dimer on Western blots,[5]; applied to 7PA2 CM (post-cond),seemed unaffected
same,Aβ trimer on Western blots,"[5]; applied to 7PA2 CM (post-cond), 1.25 μM",reduced the detectability of the Aβ trimer
same,"Aβ dimer and trimer levels, dose response by Western blot","[5]; pre-cond and post-cond, measured absolutely and normalized to monomer",appeared to reduce dimer and trimer levels
same,impact on ALCR performance without oligomers,[6]; AZD103 administered without oligomers,no impact on performance
same,Switching % errors,"[6]; ICV AZD103 alone, baseline = 100",99%
same,Switching % errors,"[6]; ICV Aβ oligomers incubated ex vivo with AZD103, baseline = 100",95%
same,Switching % errors,[6]; ICV oligomers after 4 days PO 30 mg/kg/day in drinking water,109%
same,Switching % errors,[6]; ICV oligomers after 4 days PO 100 mg/kg/day in drinking water,100%
same,Switching % errors,[6]; ICV oligomers after 4 days PO 300 mg/kg/day in drinking water,109%
same,toxicity,[7],No direct evidence of AZD-103 toxicity
same,effects on cognition and pathology,[8],Sustained effects both on cognition and pathology were observed
